One block for each molecule: values may come before it.
Legend:
[1] = Antiproliferative activity against human LO2 cells incubated for 48 hrs by MTT assay; assay type: cell-based, L02
MDA-MB-231 = assay: cells; conditions: Homo sapiens, MDA-MB-231, 48 h
K562 [2] = assay: Antiproliferative activity against drug resistant human K562 cells incubated for 48 hrs by MTT assay; assay type: functional, cell-based; conditions: K562, 48 h
Homo sapiens [3] = species on record: Homo sapiens; assay: Inhibition of [3H]colchicine binding to tubulin (unknown origin) at 4 uM incubated for 2 hrs by scintillation counting method relative to control
HepG2 = assay: Antiproliferative activity against human HepG2 cells incubated for 48 hrs by MTT assay; assay type: functional, cell-based; conditions: HepG2, 48 h
[4] = Antiproliferative activity against human HEK293T cells incubated for 48 hrs by MTT assay; assay type: cell-based, HEK-293T
Homo sapiens [5] = species on record: Homo sapiens; assay: Inhibition of [3H]colchicine binding to tubulin (unknown origin) at 2 uM incubated for 2 hrs by scintillation counting method relative to control
HT-29 [6] = assay: Antiproliferative activity against human HT29 cells incubated for 48 hrs by MTT assay; assay type: functional, cell-based; conditions: HT-29, 48 h
MCF7 [7] = assay: cells; conditions: Homo sapiens, MCF7, 48 h
Description: Antiproliferative activity against drug-resistant human MCF7 cells incubated for 48 hrs by MTT assay

MCF7 [8] = assay: cells; conditions: Homo sapiens, MCF7, 48 h; remark: listed apart in the source
K562 [9] = assay: cells; conditions: Homo sapiens, K562, 48 h
Description: Antiproliferative activity against human K562 cells incubated for 48 hrs by MTT assay

HCT-116 = assay: cells; conditions: Homo sapiens, HCT-116, 48 h
Description: Antiproliferative activity against human HCT116 cells incubated for 48 hrs by MTT assay

[10] = Inhibition of tubulin polymerization (unknown origin) measured every 2 mins for 60 mins by spectrophotometric method; set-up: species or system Homo sapiens
A549 = assay: cells; conditions: Homo sapiens, A549, 48 h
HT-29 [11] = assay: Induction of apoptosis in human HT-29 cells assessed as necrotic cells at 1 uM measured after 24 hrs by Annexin V-FITC/propidium iodide staining based flow cytometry (reference value: 0.7 %); assay type: functional
HT-29 [12] = assay: Induction of apoptosis in human HT-29 cells assessed as late apoptotic cells at 0.5 uM measured after 24 hrs by Annexin V-FITC/propidium iodide staining based flow cytometry (reference value: 0.5 %); assay type: functional
HT-29 [13] = assay: Cell cycle arrest in human HT29 cells assessed as cell accumulation at G1 phase at 1 uM incubated for 24 hrs by propidium iodide staining based flow cytometry (reference value: 70.33 %); assay type: functional
HT-29 [14] = assay: Cell cycle arrest in human HT29 cells assessed as cell accumulation at G2 phase at 0.5 uM incubated for 24 hrs by propidium iodide staining based flow cytometry (reference value: 12.53 %); assay type: functional
HT-29 [15] = assay: Induction of apoptosis in human HT-29 cells assessed as necrotic cells at […] measured after 24 hrs by Annexin V-FITC/propidium iodide staining based flow cytometry (reference value: 0.7 %); assay type: functional; conditions: dose 0.25 µM
HT-29 [16] = assay: Cell cycle arrest in human HT29 cells assessed as cell accumulation at G2 phase at […] incubated for 24 hrs by propidium iodide staining based flow cytometry (reference value: 12.53 %); assay type: functional; conditions: dose 0.25 µM
HT-29 [17] = assay: Cell cycle arrest in human HT29 cells assessed as cell accumulation at S phase at 1 uM incubated for 24 hrs by propidium iodide staining based flow cytometry (reference value: 17.15 %); assay type: functional
HT-29 [18] = assay: Induction of apoptosis in human HT-29 cells assessed as early apoptotic cells at […] measured after 24 hrs by Annexin V-FITC/propidium iodide staining based flow cytometry (reference value: 1.1 %); assay type: functional; conditions: dose 0.25 µM
HT-29 [19] = assay: Induction of apoptosis in human HT-29 cells assessed as early apoptotic cells at 0.5 uM measured after 24 hrs by Annexin V-FITC/propidium iodide staining based flow cytometry (reference value: 1.1 %); assay type: functional
HT-29 [20] = assay: Cell cycle arrest in human HT29 cells assessed as cell accumulation at G1 phase at 0.5 uM incubated for 24 hrs by propidium iodide staining based flow cytometry (reference value: 70.33 %); assay type: functional
HT-29 [21] = assay: Induction of apoptosis in human HT-29 cells assessed as viable cells at 0.5 uM measured after 24 hrs by Annexin V-FITC/propidium iodide staining based flow cytometry (reference value: 97.7 %); assay type: functional; conditions: read-out: Activity
HT-29 [22] = assay: Induction of apoptosis in human HT-29 cells assessed as viable cells at 1 uM measured after 24 hrs by Annexin V-FITC/propidium iodide staining based flow cytometry (reference value: 97.7 %); assay type: functional; conditions: read-out: Activity
HT-29 [23] = assay: Induction of apoptosis in human HT-29 cells assessed as early apoptotic cells at 1 uM measured after 24 hrs by Annexin V-FITC/propidium iodide staining based flow cytometry (reference value: 1.1 %); assay type: functional
HT-29 [24] = assay: Induction of apoptosis in human HT-29 cells assessed as late apoptotic cells at […] measured after 24 hrs by Annexin V-FITC/propidium iodide staining based flow cytometry (reference value: 0.5 %); assay type: functional; conditions: dose 0.25 µM
HT-29 [25] = assay: Induction of apoptosis in human HT-29 cells assessed as late apoptotic cells at 1 uM measured after 24 hrs by Annexin V-FITC/propidium iodide staining based flow cytometry (reference value: 0.5 %); assay type: functional
HT-29 [26] = assay: Cell cycle arrest in human HT29 cells assessed as cell accumulation at S phase at 0.5 uM incubated for 24 hrs by propidium iodide staining based flow cytometry (reference value: 17.15 %); assay type: functional
HT-29 [27] = assay: Cell cycle arrest in human HT29 cells assessed as cell accumulation at G1 phase at […] incubated for 24 hrs by propidium iodide staining based flow cytometry (reference value: 70.33 %); assay type: functional; conditions: dose 0.25 µM
HT-29 [28] = assay: Induction of apoptosis in human HT-29 cells assessed as viable cells at […] measured after 24 hrs by Annexin V-FITC/propidium iodide staining based flow cytometry (reference value: 97.7 %); assay type: functional; conditions: dose 0.25 µM, read-out: Activity
HT-29 [29] = assay: Cell cycle arrest in human HT29 cells assessed as cell accumulation at S phase at […] incubated for 24 hrs by propidium iodide staining based flow cytometry (reference value: 17.15 %); assay type: functional; conditions: dose 0.25 µM
HT-29 [30] = assay: Cell cycle arrest in human HT29 cells assessed as cell accumulation at G2 phase at 1 uM incubated for 24 hrs by propidium iodide staining based flow cytometry (reference value: 12.53 %); assay type: functional
HT-29 [31] = assay: Induction of apoptosis in human HT-29 cells assessed as necrotic cells at 0.5 uM measured after 24 hrs by Annexin V-FITC/propidium iodide staining based flow cytometry (reference value: 0.7 %); assay type: functional

SMILES: COc1ccc(/C=C\c2cc(OC)c(OC)c(OC)c2)cc1O [COMBRETASTATIN A4]
CC50 at 48 h [1]: 0.36 µM | IC50 (MDA-MB-231): 0.09 µM | IC50 (K562 [2]): 6.15 µM | inhibition (Homo sapiens [3]): 93% | IC50 (HepG2): 0.27 µM | CC50 at 48 h [4]: 1.44 µM | inhibition (Homo sapiens [5]): 81.5% | IC50 (HT-29 [6]): 0.31 µM | IC50 (MCF7 [7]): 0.49 µM | IC50 (MCF7 [8]): 0.25 µM | IC50 (K562 [9]): 0.61 µM | IC50 (HCT-116): 0.11 µM | IC50 [10]: 1.12 µM | IC50 (A549): 0.23 µM

IC50 (K562 [2]): 16.3 µM | IC50 (K562 [9]): 0.21 µM
SMILES: COc1cccc2c1C(=O)c1c(O)c3c(c(O)c1C2=O)C[C@@](O)(C(=O)CO)C[C@@H]3O[C@H]1C[C@H](N)[C@H](O)[C@H](C)O1 [DOXORUBICIN]

IC50 (MDA-MB-231): 2.77 µM | IC50 (K562 [2]): 121 µM | IC50 (HepG2): 2.92 µM | IC50 (HT-29 [6]): 2.8 µM | IC50 (MCF7 [7]): 23.4 µM | IC50 (MCF7 [8]): 5.4 µM | IC50 (K562 [9]): 20.3 µM | IC50 (HCT-116): 2.47 µM | IC50 (A549): 10.2 µM
SMILES: CC(C)=CC[C@@H](O)C1=CC(=O)c2c(O)ccc(O)c2C1=O [SHIKONIN]
Activity (HT-29 [11]): 0.6% | Activity (HT-29 [12]): 0.4% | Activity (HT-29 [13]): 32.11% | CC50 at 48 h [1]: 11.8 µM | Activity (HT-29 [14]): 22.9% | CC50 at 48 h [4]: 7 µM | Activity (HT-29 [15]): 1.2% | Activity (HT-29 [16]): 19.5% | Activity (HT-29 [17]): 43.57% | Activity (HT-29 [18]): 7.1% | Activity (HT-29 [19]): 11.9% | Activity (HT-29 [20]): 50.02% | viability at 0.5 µM (HT-29 [21]): 87% | viability at 1 µM (HT-29 [22]): 76.7% | Activity (HT-29 [23]): 19.5% | Activity (HT-29 [24]): 0.7% | Activity (HT-29 [25]): 3.2% | Activity (HT-29 [26]): 27.08% | Activity (HT-29 [27]): 52.4% | viability at […] (HT-29 [28]): 91% | Activity (HT-29 [29]): 28.1% | Activity (HT-29 [30]): 24.51% | Activity (HT-29 [31]): 0.7%

— ChEMBL document CHEMBL4765259, “Synthesis and biological evaluation of novel shikonin-benzo[b]furan derivatives as tubulin polymerization inhibitors targeting the colchicine binding site” (Eur J Med Chem, 2020)
